Measurements reported in ChEMBL document CHEMBL1130598, “Pyrroles and other heterocycles as inhibitors of p38 kinase” (Bioorg Med Chem Lett, 1998).

Experiments:
[1] = biological target: Mitogen-activated protein kinase 14 (Rattus norvegicus, UniProt P70618); experiment: Inhibitory potency evaluated against rat p38 kinase
[2] = biological target: T1, RAF proto-oncogene serine/threonine-protein kinase (Homo sapiens, UniProt P04049); experiment: Inhibition of RAF kinase at 1 uM
[3] = biological target: T1, RAF proto-oncogene serine/threonine-protein kinase; experiment: Inhibition of RAF kinase
[4] = biological target: Mitogen-activated protein kinase 11 (Homo sapiens, UniProt Q15759); experiment: Inhibition of Mitogen-activated protein kinase p38 beta
Sequence of Mitogen-activated protein kinase 11 (Q15759 whole entry): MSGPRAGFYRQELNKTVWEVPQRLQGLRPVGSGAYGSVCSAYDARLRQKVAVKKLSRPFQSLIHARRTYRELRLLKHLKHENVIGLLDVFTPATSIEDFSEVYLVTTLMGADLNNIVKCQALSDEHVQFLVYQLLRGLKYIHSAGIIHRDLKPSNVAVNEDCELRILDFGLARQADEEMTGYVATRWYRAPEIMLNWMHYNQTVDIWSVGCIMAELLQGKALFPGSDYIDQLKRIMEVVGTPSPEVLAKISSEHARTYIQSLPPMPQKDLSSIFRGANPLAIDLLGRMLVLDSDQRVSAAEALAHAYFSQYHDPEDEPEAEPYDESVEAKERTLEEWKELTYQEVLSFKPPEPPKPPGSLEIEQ

[5] = Pharmacokinetic parameter area under curve was determined at 3 mg/kg po dose in rats; assay type: ADME, organism-based; parameters: dose 3 mg/kg, route oral; settings: rat, in vivo
Rattus norvegicus = species: Rattus norvegicus; experiment: Inhibition of secondary paw swelling in rat adjuvant arthritis model; assay type: functional
[6] = biological target: T2, Mitogen-activated protein kinase 9 (Homo sapiens, UniProt P45984); experiment: Inhibition of c-Jun N-terminal kinase 2-alpha 2
T2 sequence (P45984 whole entry): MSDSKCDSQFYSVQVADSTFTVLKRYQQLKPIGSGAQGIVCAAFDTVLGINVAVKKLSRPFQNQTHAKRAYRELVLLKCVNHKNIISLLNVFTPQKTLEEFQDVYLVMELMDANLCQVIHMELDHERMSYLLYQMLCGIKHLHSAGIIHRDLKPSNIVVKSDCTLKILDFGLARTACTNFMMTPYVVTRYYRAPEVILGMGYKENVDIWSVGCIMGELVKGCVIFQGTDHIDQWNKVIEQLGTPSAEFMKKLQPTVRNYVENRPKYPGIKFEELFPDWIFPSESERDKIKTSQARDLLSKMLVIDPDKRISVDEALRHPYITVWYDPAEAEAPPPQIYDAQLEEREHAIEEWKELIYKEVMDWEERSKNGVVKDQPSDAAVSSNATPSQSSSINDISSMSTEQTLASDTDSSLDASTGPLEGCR

[7] = biological target: T3, Mitogen-activated protein kinase 12 (Homo sapiens) (UniProt P53778); experiment: Inhibition of Mitogen-activated protein kinase p38 gamma at 25 uM
T3 sequence (whole entry): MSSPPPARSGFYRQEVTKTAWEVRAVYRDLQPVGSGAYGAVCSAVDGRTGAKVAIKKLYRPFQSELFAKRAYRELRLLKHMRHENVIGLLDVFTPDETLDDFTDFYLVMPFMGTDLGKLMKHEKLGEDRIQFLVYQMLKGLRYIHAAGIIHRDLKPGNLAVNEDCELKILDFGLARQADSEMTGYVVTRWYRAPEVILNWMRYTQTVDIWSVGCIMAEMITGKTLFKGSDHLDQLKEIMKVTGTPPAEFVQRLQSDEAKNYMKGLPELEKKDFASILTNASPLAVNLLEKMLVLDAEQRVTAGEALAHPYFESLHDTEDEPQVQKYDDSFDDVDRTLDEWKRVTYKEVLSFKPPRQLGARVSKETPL

[8] = biological target: Mitogen-activated protein kinase 14 (Homo sapiens, UniProt Q16539); experiment: Inhibition of Mitogen-activated protein kinase p38 alpha
Sequence of Mitogen-activated protein kinase 14 (Homo sapiens, UniProt Q16539) (Q16539 whole entry): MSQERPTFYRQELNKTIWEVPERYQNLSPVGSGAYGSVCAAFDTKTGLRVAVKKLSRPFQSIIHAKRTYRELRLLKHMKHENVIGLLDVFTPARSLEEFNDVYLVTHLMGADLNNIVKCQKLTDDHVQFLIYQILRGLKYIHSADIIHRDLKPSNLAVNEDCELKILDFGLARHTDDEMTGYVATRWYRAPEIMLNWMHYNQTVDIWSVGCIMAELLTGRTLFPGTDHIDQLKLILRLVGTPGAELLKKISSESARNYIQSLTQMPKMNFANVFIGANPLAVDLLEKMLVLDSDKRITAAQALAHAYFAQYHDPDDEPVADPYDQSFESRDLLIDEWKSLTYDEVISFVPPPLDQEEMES

[9] = biological target: T2, Mitogen-activated protein kinase 9; experiment: Inhibition of c-Jun N-terminal kinase 2-beta 1
[10] = Pharmacokinetic parameter area under curve was determined at 10 mg/kg po dose in rats; assay type: ADME, organism-based; parameters: dose 10 mg/kg, route oral; settings: rat, in vivo
[11] = biological target: Mitogen-activated protein kinase 8 (Homo sapiens, UniProt P45983); experiment: Inhibition of c-Jun N-terminal kinase 1-alpha 1 at 20 uM
Sequence of Mitogen-activated protein kinase 8 (P45983 whole entry): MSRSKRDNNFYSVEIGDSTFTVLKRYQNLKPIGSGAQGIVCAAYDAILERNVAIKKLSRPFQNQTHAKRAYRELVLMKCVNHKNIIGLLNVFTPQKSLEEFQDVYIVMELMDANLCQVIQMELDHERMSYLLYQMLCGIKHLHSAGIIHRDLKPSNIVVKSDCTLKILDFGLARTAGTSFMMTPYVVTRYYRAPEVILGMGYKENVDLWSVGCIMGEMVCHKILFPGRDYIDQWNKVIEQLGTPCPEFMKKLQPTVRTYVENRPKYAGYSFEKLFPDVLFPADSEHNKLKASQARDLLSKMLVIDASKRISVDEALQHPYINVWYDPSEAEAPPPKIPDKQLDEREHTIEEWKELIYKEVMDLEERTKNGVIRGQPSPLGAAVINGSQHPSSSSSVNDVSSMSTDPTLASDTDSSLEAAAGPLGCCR

[12] = Pharmacokinetic parameter area under curve was determined at 2 mg/kg i.v. dose in rats; assay type: ADME, organism-based; parameters: dose 2 mg/kg, route intravenous; settings: rat, in vivo, iv
[13] = Pharmacokinetic parameter area under curve was determined at 5 mg/kg i.v. dose in rats; assay type: ADME, organism-based; parameters: dose 5 mg/kg, route intravenous; settings: rat, in vivo, iv

Sequence of Mitogen-activated protein kinase 14 (Rattus norvegicus, UniProt P70618) (P70618 whole entry): as the sequence (Q16539 whole entry) above, with I17V, L48H, T263A, D321E, L332F counted along it
T1 sequence (P04049 whole entry): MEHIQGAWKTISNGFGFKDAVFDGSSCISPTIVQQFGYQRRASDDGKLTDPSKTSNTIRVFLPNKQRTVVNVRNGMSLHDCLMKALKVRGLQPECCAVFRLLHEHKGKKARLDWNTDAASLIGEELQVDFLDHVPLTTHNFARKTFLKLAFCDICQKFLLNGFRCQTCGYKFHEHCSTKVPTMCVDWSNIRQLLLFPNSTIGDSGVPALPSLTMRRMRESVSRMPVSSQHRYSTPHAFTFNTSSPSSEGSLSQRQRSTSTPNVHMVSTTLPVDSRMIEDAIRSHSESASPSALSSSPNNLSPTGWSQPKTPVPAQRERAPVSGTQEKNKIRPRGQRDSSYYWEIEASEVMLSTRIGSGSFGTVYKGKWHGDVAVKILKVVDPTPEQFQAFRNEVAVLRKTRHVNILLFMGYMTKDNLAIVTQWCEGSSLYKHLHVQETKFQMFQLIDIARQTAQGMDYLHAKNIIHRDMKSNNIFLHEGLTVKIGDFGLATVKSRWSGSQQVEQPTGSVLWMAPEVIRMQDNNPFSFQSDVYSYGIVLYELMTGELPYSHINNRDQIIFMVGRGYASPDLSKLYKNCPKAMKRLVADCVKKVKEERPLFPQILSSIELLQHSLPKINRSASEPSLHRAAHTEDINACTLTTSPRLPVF

Structure (SMILES) | IC50 [1] | further results
Oc1ccc(-c2[nH]c(-c3ccccc3)cc2-c2ccncc2)cc1 | 2400 nM | 
c1ccc(-c2cc(-c3ccncc3)c(-c3ccccn3)[nH]2)cc1 | 2300 nM | 
Clc1ccccc1-c1[nH]c(-c2ccccc2)cc1-c1ccncc1 | 500 nM | 
O=C(O)c1ccc(-c2cc(-c3ccncc3)c(-c3ccccc3)[nH]2)cc1 | 14 nM | 
Clc1ccc(-c2[nH]c(-c3ccccc3)cc2-c2ccncc2)cc1Cl | 30 nM | 
CCOC(=O)c1ccc(-c2[nH]c(-c3ccccc3)cc2-c2ccncc2)cc1 | > 10000 nM | 
Clc1ccc(-c2cc(-c3ccncc3)c(-c3ccccc3)[nH]2)cc1 | 510 nM | 
Fc1ccc(-c2cc(-c3ccc(Cl)cc3)oc2-c2ccncc2)cc1 | 530 nM | 
FC(F)(F)c1ccc(-c2[nH]c(-c3ccccc3)cc2-c2ccncc2)cc1 | 910 nM | 
Fc1ccc(-c2[nH]c(-c3ccccc3)cc2-c2ccncc2)cc1F | 4.4 nM | 
Fc1ccc(-c2cc(-c3ccncc3)c(-c3ccccc3)[nH]2)cc1 | 17 nM | 
Fc1ccc(-c2cc(-c3ccncc3)c(-c3ccc(F)cc3)[nH]2)cc1 | 60 nM | 
N#Cc1ccc(-c2[nH]c(-c3ccccc3)cc2-c2ccncc2)cc1 | 450 nM | 
O=C(CCN1CCCCC1)Nc1ccc(-c2cc(-c3ccncc3)c(-c3ccccc3)[nH]2)cc1 | 390 nM | 
Fc1ccc(-c2nc(-c3ccc(Cl)cc3)[nH]c2-c2ccncc2)cc1 | 80 nM | 
CSc1ccc(-c2cc(-c3ccncc3)c(-c3ccc(F)cc3)[nH]2)cc1 | 44 nM | 
C[S+]([O-])c1ccc(-c2cc(-c3ccnc4ccccc34)c(-c3ccc(F)cc3)[nH]2)cc1 (stereo unspecified) | 114 nM | 
Fc1ccc(-c2[nH]c(-c3ccccc3)cc2-c2ccncn2)cc1 | 710 nM | 
Fc1ccccc1-c1cc(-c2ccncc2)c(-c2ccccc2)[nH]1 | 34 nM | 
c1ccc(-c2cc(-c3ccncc3)c(-c3ccccc3)[nH]2)cc1 | 17 nM | 
c1ccc(-c2cc(-c3ccncc3)c(-c3cccs3)[nH]2)cc1 | 120 nM | 
Fc1ccc(-c2[nH]c(-c3ccc(Cl)cc3)cc2-c2ccccn2)cc1 | > 10000 nM | 
CS(=O)(=O)c1ccc(-c2cc(-c3ccncc3)c(-c3ccc(F)cc3)[nH]2)cc1 | 9.8 nM | inhibition [2]: 50%; IC50 [3]: 500 nM; IC50 [4]: 10 nM; AUC [5]: 5.8 µM·h; ED50 (Rattus norvegicus; Rattus norvegicus, read-out: ID50 (the source's name)): 7.4 mg/kg/day; IC50 [6]: 6850 nM; inhibition [7]: 37%; IC50 [8]: 9 nM; IC50 [9]: 1080 nM; AUC [10]: 95.7 µM·h; inhibition [11]: 50%; AUC [12]: 6.18 µM·h; AUC [13]: 32.6 µM·h
Clc1cccc(-c2[nH]c(-c3ccccc3)cc2-c2ccncc2)c1 | 29 nM | 
COc1ccc2c(c1)c(CC(=O)O)c(C)n2C(=O)c1ccc(Cl)cc1 [INDOMETHACIN] |  | ID50 (Rattus norvegicus): 1 mg kg-1 b.i.d.
CC(C)(C)Oc1ccc(-c2[nH]c(-c3ccccc3)cc2-c2ccncc2)cc1 | > 1000 nM | 
O=C(NCCN1CCCCC1)c1ccc(-c2cc(-c3ccncc3)c(-c3ccccc3)[nH]2)cc1 | 97 nM | 
Fc1ccc(-c2[nH]c(-c3ccc(Cl)cc3)cc2-c2ccncc2)cc1 | 200 nM | 
